Patent US10905656B2, “Methods and compositions for treating arteriosclerotic vascular diseases” (GOLDEN BIOTECHNOLOGY CORPORATION, priority 2012, dated 2021)

Legend:
[1] = test system: A7r5 cells (rat aortic smooth muscle cells); test: MTT assay, cytotoxic effect on smooth muscle cells; format: cell-based; settings: 0 μg/ml-3 μg/ml, 24 hours
Source text: (§1) MTT assay is commonly used to determine cell proliferation, percent of viable cells, and cytotoxicity. MTT (3[4,5-dimethylthiazol-2-yl]2,5-diphenyltetrazolium bromide) is a yellow dye, which can be absorbed by the living cells and be reduced to purplish blue formazan crystals by succinate tetrazolium reductase in mitochondria. Formazan formation can therefore be used to assess and determine the survival rate of cells. A solubilization solution (usually either dimethyl sulfoxide, an acidified ethanol solution, or a solution of the detergent sodium dodecyl sulfate in diluted hydrochloric acid) is added to dissolve the insoluble purple formazan product into a colored solution. The absorbance of this colored solution can be quantified by measuring at a certain wavelength (usually between 500 and 600 nm) by a spectrophotometer. The more surviving cells, the higher the absorbance. The percentage of cell survival (%)=OD value of experimental group÷OD value of control group×100%. Procedure
1. […]
3. […] The survival rate of cells was calculated based on the measurement of absorption at the 570 nm wavelength by ELISA reader.
(§2) Potential cytotoxicity of Compound 1 to smooth muscle cells was tested. […] As shown in FIGS. 2A/2B, the cytotoxic effect of Compound 1 at different concentrations on smooth muscle cells (A7r5) was determined via MTT assay (FIG. 2A) and LDH assay (FIG. 2B).

[2] = test system: ERK1/2; test: ERK1/2 phosphorylation in HepG2 by immunoblot; format: cell-based, human; settings: HepG2, 1 h, immunoblot p-ERK1/2
Procedure: FIG. 11A-B show illustrative effective results of the exemplary cyclohexenone Compound 1 stimulates ERK1/2 phosphorylation in HepG2 cell line. (2A), HepG2 cell line was serum-starved overnight and challenged with the indicated concentrations of Compound 1 for 1 h. Whole cell lysates were then immunoblotted with phosphor-ERK1/2 antibody and reprobed with β-actin antibody. Duplicated membrane was probed with ERK1/2 antibody. (2B), the relative expression level of p-ERK1/2 to β-actin was quantified by densitometry. Experiments were conducted in triplicate. Bar represented as mean±SEM.
HepG2 cells were cultured in MEM alpha medium (Invitrogen/Gibco BRL, Grand Island, N.Y., USA). […]
Sixty micrograms of total protein in cell lysate, which was measured using Bradford assay (Sigma-Aldrich, St. Louis, Mo.), was resolved on 12.5% SDS polyacrylamide gels. […] Blots were blocked with 3% BSA and probed with a 1:1,000 dilution of antibodies to phospho-p44/42 (ERK1/2)(Thr202/Tyr204) (Cell Signaling Technology, USA), p44/42MAPK(ERK1/2) (Cell Signaling Technology, USA) or β-actin (Sigma-Aldrich, St. Louis, Mo.), then horse radish-peroxidase (HRP)-conjugated secondary antibody and detected by 3,3′-diaminobenzidine (DAB) substrate kit for peroxidase (Vector Laboratories, Burlingame, Calif.). […]

[3] = test system: LDLR mRNA; test: LDLR mRNA expression in HepG2 by RT-PCR; format: cell-based, human; settings: HepG2, after addition of compound
Procedure: FIG. 10A-B show results of LDLR mRNA expression in HepG2 cell line induced by an exemplary cyclohexenone Compound 1. HepG2 cell line was serum-starved overnight and challenged with 20 μM Compound 1 at indicated time intervals (1A). Cells were then collected and the mRNA expression level of LDLR and GAPDH (internal control) were detected by RT-PCR. The relative expression level of LDLR to GAPDH was quantified by densitometry (1B). Experiments were conducted in triplicate. Bar represented as mean±SEM. * indicates p<0.05 and ** indicates p<0.01.
HepG2 cells were cultured in MEM alpha medium (Invitrogen/Gibco BRL, Grand Island, N.Y., USA). Cells were cultured at 37° C. in 5% CO2 in culture media supplemented with 10% fetal bovine serum (Invitrogen/Gibco BRL) and 100 U/ml streptomycin and penicillin (Invitrogen/Gibco BRL). For treatment, cells were seeded in six-well plates at 6.25×10^5 cells/well. On the following day, the media were changed to serum-free and the cells were serum-starved for 24 h. Compound 1 was dissolved in DMSO and diluted to the required concentration with serum-free medium. Cultures were then treated with diluted Compound 1 for the indicated time periods. […]
LDLR mRNA expression level was quantitative analysis by RT-PCR. […] The PCR products intensity was quantified by densitometry using Image-Pro Plus software (Media Cybernetics, Silver Spring, Md.).

[4] = test system: A7r5 cells (rat aortic smooth muscle cells); test: Lactate dehydrogenase (LDH) activity assay, cytotoxicity; format: cell-based; settings: 0 μg/ml-3 μg/ml, 24 hours
Source text: Cells have plenty of lactate dehydrogenase (LDH). When cells are healthy, LDH cannot freely cross cell membrane. […] LDH activity in the culture medium is directly proportional to the number of dead cells. The cell viability can be measured quantitatively to detect absorbance by using colorimetric method at a wavelength of 492 nm. The change of the absorbance values come from the fact that LDH catalyzes the conversion of lactate to pyruvate with the concomitant production of NADH. The NADH, in the presence of diaphorase and tetrazolium salt INT, is used to drive the diaphorase-catalyzed production of red formazan product. The present experiment utilizes Cytotoxicity Assay Kit (Promega) to conduct culture medium LDH Quantitation assay.
(§3) 1. Adherence of cells: 2×10^4 cells/ml/well of A7r5 cells were seeded onto a 24-well plate and incubated at 37° C. for 24 hours.
2. Dosing: 500 ul/well different concentrations of compound 1 were formulated in culture medium containing 10% FBS/DMEM and incubated for 24 hours. […]
3. […] Absorbance was measured by ELISA reader at the 490 nm wavelength.
as §2

[5] = test system: PDGF-stimulated A7r5 cells; test: PDGF-stimulated smooth muscle cell proliferation, MTT assay; format: cell-based, Rattus norvegicus; settings: 3 μg/ml, 20 hours pretreatment, PDGF 24 hours
Source text: as §1, §3
2. Dosing: 500 ul/well different concentrations of compound 1 were pretreated in culture medium containing 1% FBS/DMEM for 20 hours. […]
3. […] The survival rate of cells was calculated based on the measurement of absorption at the 570 nm wavelength by ELISA reader. […]

[6] = test system: mice with carotid artery ligation; test: Carotid artery ligation model, neointima formation; format: in vivo, C57BL/6J mice; settings: 60 mg/kg body weight oral gavage, from three days before ligation, 28 days; control higher than 3.0; p<0.001
Source text: Arteries are vessels that carry blood away from the heart. The carotid arteries are blood vessels that supply blood to the head, neck and brain. One carotid artery is position on each side of the neck. The right common carotid artery branches from the brachiocephalic artery and extends up the right side of the neck. The left common carotid artery branches from the aorta and extends up the left side of the neck. Each carotid artery branches into internal and external vessels near the top of the thyroid. Following the study by Hsing-Chun Chung (Dissertation, 2008, Southern Taiwan University), the carotid artery ligation was conducted on the left common carotid artery in mice to induce neointimal thickening.
This experiment used 8-week-old C57BL/6J male mice having about 25 g of body weight, which were purchased from National Laboratory Animal Center. These mice were maintained at the Laboratory Animal center of National Defense Medical Center on a 12 hour dark/12 hour light cycle in air conditional rooms (18-26° C., 30%-70% humidity).
1. The animals were given Compound 1 by oral gavage three days prior to the surgery and were continuously fed with Compound 1 for 28 days by oral gavage.
2. […]

[7] = test system: PDGF-stimulated A7r5 cells; test: Wound scratching test, PDGF-stimulated smooth muscle cell migration; format: cell-based, Rattus norvegicus; settings: 3 μg/ml, 24 hours
Procedure: 1. A7r5 cells (5×10^6 cells/ml) were seeded onto a 6-well cell culture plate and incubated at 37° C. overnight.
2. 1×PBS was used to wash the wells twice. Compound 1 with different concentrations in DMEM culture medium containing 1% FBS was added and pretreated for 20 hours.
3. A cross-shape acellular space was created by a sterile 200 μl pipette tip and washed twice with 1×PBS.
4. After removing PBS, 2 ml PDGF in DMEM culture medium containing 1% FBS were added. The cells were photographed by a microscope at 0, 6, 12 and 24 hours, respectively from the time of adding PDGF.
The inhibition of Compound 1 on migration of smooth muscle cells (A7r5 cells) was investigated in a wound scratching test by measuring PDGF-stimulated cell migration distance. The PDGF-stimulated cell culture without Compound 1 treatment was used as positive control.

With COC1=C(OC)C(O)C(C/C=C(\C)CC/C=C(\C)CCC=C(C)C)C(C)C1=O (centres unmarked) [Compound 1, 4-hydroxy-2,3-dimethoxy-6-methyl-5-(3,7,11-trimethyldodeca-2,6,10-trienyl)cyclohex-2-enone] the “survival rate of cells (MTT assay)” value [1] was “cell purification was not affected by the drug treatment”, the “concentration enough to induce activation of ERK1/2” value [2] was 0.5 µM and the “time at which LDLR mRNA expression was first increased” value [3] was 2 h. For the same molecule, the “time at which the LDLR mRNA increase reached a significant level” value ([3]; increased up to 6 h) was 4 h, the “cytotoxicity (LDH assay)” value [4] was “no cytotoxcity has been observed” and the “reduction of PDGF-stimulated smooth muscle cell proliferation” value [5] was “about 50%”. For the same molecule, the “average N/M ratio (neointima area/medial area)” value [6] was 1.0 and the “decrease in PDGF-stimulated smooth muscle cell migration” value [7] was “about 50%”.
